In BindingDB's records for doi:10.1073/pnas.0708800104 (University of Oxford, 2007):

Legend:
[1] = Inhibition of IGF1R-dependent tumor cell growth in human MCF7 cells
[2] = biological target: Proto-oncogene tyrosine-protein kinase Src (Homo sapiens) (UniProt P12931); experiment: Inhibition of cSrc
[3] = Inhibition of Cdk5

Chain of Proto-oncogene tyrosine-protein kinase Src (Homo sapiens) (P12931 whole entry, looked up): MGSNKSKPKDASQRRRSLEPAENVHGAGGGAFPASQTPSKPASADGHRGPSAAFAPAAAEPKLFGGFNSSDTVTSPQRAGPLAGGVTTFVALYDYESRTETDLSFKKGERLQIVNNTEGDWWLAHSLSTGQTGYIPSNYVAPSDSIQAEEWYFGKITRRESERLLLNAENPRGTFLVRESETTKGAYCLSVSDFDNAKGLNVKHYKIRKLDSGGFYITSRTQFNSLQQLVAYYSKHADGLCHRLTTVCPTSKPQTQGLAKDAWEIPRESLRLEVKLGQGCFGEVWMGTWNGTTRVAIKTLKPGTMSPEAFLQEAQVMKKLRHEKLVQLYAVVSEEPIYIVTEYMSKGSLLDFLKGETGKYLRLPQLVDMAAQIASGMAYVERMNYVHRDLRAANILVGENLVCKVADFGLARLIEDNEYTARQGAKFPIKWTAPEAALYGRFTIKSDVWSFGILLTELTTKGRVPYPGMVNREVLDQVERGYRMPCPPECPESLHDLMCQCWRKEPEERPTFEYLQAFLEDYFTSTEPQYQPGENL

## COc1ccc(Cl)cc1NC(=O)Nc1cc(C)nc2ccccc12 [TCMDC-125497]
[1]
  IC50: 8 µM

## CCN(CC)CCCCNc1ncc2cc(-c3cc(OC)cc(OC)c3)c(NC(=O)NC(C)(C)C)nc2n1
[2]
  IC50: 19.8 µM

## O=C1Nc2ccccc2/C1=C\c1c(Cl)[nH]c2ccccc12
[3]
  IC50: 25 µM
